In US20240002388A1, “PYRIMIDINONE COMPOUNDS AND USES THEREOF” (HUTCHISON MEDIPHARMA LIMITED, priority 2020, published 2024) one finds IC50 data, which are given here for 23 molecules.

SMILES strings stand for the structures.

This assay deals with U937 cell line (human histiocytic lymphoma cell line). Put plainly: U937 cell viability assay (TNF-α + Z-VAD-FMK induced necroptosis). Format: cell-based. Particulars: Homo sapiens, U-937; U937 cells, hTNF-α 0.1 μg/mL + Z-VAD-FMK 50 μM, 20 hours, CellTiter-Glo. The essentials:
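U937 cells (1.75×10^4/well, 1% FBS RPMI 1640) were preincubated 1 h with compound (0.0005–1.0 μM, 0.3% DMSO) and 50 μM Z-VAD-FMK, then stimulated with 0.1 μg/mL TNF-α for 20 h at 37 °C. Viability was read by CellTiter-Glo luminescence. Inhibition was normalised between TNF-α+Z-VAD and unstimulated wells, and IC50 was fitted.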
A general note: In ATP-based viability assays light output follows the ATP content of the culture.

What is called IC50 is the midpoint of a concentration-inhibition curve. For `CC(C)n1ncc2cnc(C(=O)NC3(c4ccc(-c5cncn(CC(F)(F)F)c5=O)cc4)CC3)nc21` [Compound 38], the 50% inhibitory concentration (IC50) is 13 nM. Turning to `CC(C)n1ncc2cnc(C(=O)NC3(c4ccc(-c5cncn([C@H](C)C(F)(F)F)c5=O)cc4)CC3)nc21` [Compound 39], the half-maximal inhibitory concentration (IC50) was 6 nM. For `CC(C)n1ncc2cnc(C(=O)NC3(c4ccc(-c5cncn([C@@H](C)C(F)(F)F)c5=O)cc4)CC3)nc21` [Compound 40], the IC50 worked out at 12 nM. As for `CC(C)n1ncc2cnc(C(=O)NC3(c4ccc(-c5cncn(C6COC6)c5=O)cc4)CC3)nc21` [Compound 41], the IC50 was 64 nM. The value for `CC(C)n1ncc2cnc(C(=O)NC3(c4ccc(-c5cncn(C6CCC6)c5=O)cc4)CC3)nc21` [Compound 42] was 7 nM; that for `CC[C@H](C)n1cncc(-c2ccc(C3(NC(=O)c4ncc5cnn(C(C)C)c5n4)CC3)cc2)c1=O` [Compound 43] was 2 nM.

Take `CC[C@@H](C)n1cncc(-c2ccc(C3(NC(=O)c4ncc5cnn(C(C)C)c5n4)CC3)cc2)c1=O` [Compound 44]: the IC50 is 2 nM. Take `CC(C)Cn1cncc(-c2ccc(C3(NC(=O)c4ncc5cnn(C(C)C)c5n4)CC3)cc2)c1=O` [Compound 45]: the IC50 turned out to be 2 nM. In the case of `Cn1cncc(-c2ccc(C3(NC(=O)c4nc5n(n4)[C@@H](c4ccccc4)CC5)CC3)cc2)c1=O` [Compound 54, (R)—N-(1-(4-(1-methyl-6-oxo-1,6-dihydropyrimidin-5-yl)phenyl)cyclopropyl)-5-phenyl-6,7-dihydro-5H-pyrrolo[1,2-b][1,2,4]triazole-2-carboxamide], the IC50 amounted to 12 nM. For `C[C@H](c1ccccc1)n1cnc(C(=O)NC2(c3ccc(-c4cncn(C)c4=O)cc3)CC2)n1` [Compound 55, (R)—N-(1-(4-(1-methyl-6-oxo-1,6-dihydropyrimidin-5-yl)phenyl)cyclopropyl)-1-(1-phenylethyl)-1H-1,2,4-triazole-3-carboxamide], the IC50 amounted to 7 nM. Under `CC(C)n1cncc(-c2ccc(C3(NC(=O)c4ncc5cnn(C6COC6)c5n4)CC3)cc2)c1=O` [Compound 60] stands 66 nM. Take `CC(C)n1cncc(-c2ccc(C3(NC(=O)c4ncc5cnn(CC6CC6)c5n4)CC3)cc2)c1=O` [Compound 61]: the 50% inhibitory concentration (IC50) turned out to be 3 nM. Under `CC(C)n1cncc(-c2ccc(C3(NC(=O)c4ncc5cnn(CC6CCC6)c5n4)CC3)cc2)c1=O` [Compound 62] stands 2 nM; under `CC(C)n1cncc(-c2ccc(C3(NC(=O)c4ncc5cnn(-c6ccccn6)c5n4)CC3)cc2)c1=O` [Compound 63], 51 nM; under `O=C(NC1(c2ccc(-c3cncn(CC4CC4)c3=O)cc2)CC1)c1ncc2cnn(CC3CC3)c2n1` [Compound 64], 2 nM. Turning to `CC(C)n1ncc2cnc(C(=O)NC3(c4ccc(-c5cncn(C6CC(F)(F)C6)c5=O)cc4)CC3)nc21` [Compound 65], the IC50 was determined as 7 nM. The value for `CC(C)n1ncc2cnc(C(=O)NC3(c4ccc(-c5cncn(CC6CCC6)c5=O)cc4)CC3)nc21` [Compound 66] was 3 nM; that for `CC(C)n1ncc2cnc(C(=O)NC3(c4ccc(-c5cncn([C@H]6C[C@@H]6F)c5=O)cc4)CC3)nc21` [Compound 67] was 91 nM. As for `C[C@H](n1cncc(-c2ccc(C3(NC(=O)c4ncc5cnn(CC6CC6)c5n4)CC3)cc2)c1=O)C(F)(F)F` [Compound 68], the half-inhibitory concentration (IC50) amounted to 6 nM.

Consider `CC(C)n1ncc2cnc(C(=O)NC3(c4ccc(-c5cncn([C@@H]6C[C@@H]6F)c5=O)cc4)CC3)nc21` [Compound 69], for which the concentration for half-maximal inhibition (IC50) was found to be 9 nM. Take `C[C@@H](n1cncc(-c2ccc(C3(NC(=O)c4ncc5cnn(CC6CC6)c5n4)CC3)cc2)c1=O)C(F)(F)F` [Compound 70]: the IC50 amounted to 2 nM.

Consider `C[C@H](n1cncc(-c2ccc(C3(NC(=O)c4ncc5cnn(CC6CC6)c5n4)CC3)c(F)c2)c1=O)C(F)(F)F` [Compound 71], for which the concentration for half-maximal inhibition (IC50) was determined as 3 nM. For the molecule `CC(C)n1cncc(-c2ccc(C3(NC(=O)c4ncc5cnn(CC6CC6)c5n4)CC3)c(F)c2)c1=O` [Compound 72], the IC50 was determined as 2 nM.
